The values below come from patent publication US20260272895A1, “METHODS AND KITS FOR DELIVERY OF COMPOUNDS INTO CELLS” (Yale University, priority 2023, published 2026).

One test deals with T1, Slco1a4 (Mus musculus, UniProt Q9EP96).
T1 sequence (Q9EP96 1-670): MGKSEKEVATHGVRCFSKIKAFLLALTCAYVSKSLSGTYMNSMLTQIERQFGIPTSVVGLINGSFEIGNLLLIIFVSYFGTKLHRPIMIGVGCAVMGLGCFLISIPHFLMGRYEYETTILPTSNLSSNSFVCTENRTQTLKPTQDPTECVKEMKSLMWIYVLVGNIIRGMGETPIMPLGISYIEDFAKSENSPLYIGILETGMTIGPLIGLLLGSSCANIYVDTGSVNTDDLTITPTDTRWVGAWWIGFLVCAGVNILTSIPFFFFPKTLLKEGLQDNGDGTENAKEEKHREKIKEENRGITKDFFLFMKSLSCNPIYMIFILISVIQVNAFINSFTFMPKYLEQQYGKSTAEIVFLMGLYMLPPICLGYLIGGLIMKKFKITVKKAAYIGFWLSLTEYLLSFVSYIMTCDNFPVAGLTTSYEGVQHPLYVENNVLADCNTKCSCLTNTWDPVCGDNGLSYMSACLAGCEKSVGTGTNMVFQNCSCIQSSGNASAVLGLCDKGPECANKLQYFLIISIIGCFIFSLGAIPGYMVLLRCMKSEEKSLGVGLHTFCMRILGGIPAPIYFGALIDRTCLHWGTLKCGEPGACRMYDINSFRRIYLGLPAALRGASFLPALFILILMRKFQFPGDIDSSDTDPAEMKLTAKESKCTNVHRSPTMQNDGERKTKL
Put plainly: Compound uptake in HEK293 cells transfected with Slco1a4. Format: cell-based. The settings on record: concentration not given. Set-up: FLAG; expressed in transfected cells. How it is done: (§1) HEK293 cells are cultured and seeded at ~60% confluency in 24-well plates and are transiently transfected with 250 ng of a candidate transporter and 1 μL transfection reagent (JetPRIME). After 2 days, cells are washed and novel fluorescent probes at different concentrations are added to the transport medium and incubated at 37° C., for at least 30 minutes. To terminate the transport, cells are washed with PBS and fixed with 4% paraformaldehyde. The colocalization of probe uptake and cells expressing the transporters is investigated by immunostaining the transporter which has a fused FLAG tag, using anti-FLAG 488. Before confocal imaging, nuclei are labeled with Hoechst 33342 and cells are mounted and imaged on a Leica SP8 confocal microscope.
(§2) For in vitro experiments, HEK293 cells were cultured and seeded in 24-well plates, reaching approximately 60% confluency. For transient transfection, 250 ng of a candidate transporter plasmid and 1 μL of transfection reagent (JetPRIME) were added to the cells. After a 2-day incubation period, the cells were washed, and novel fluorescent probes were introduced into the transport medium at various concentrations. The cells were then incubated at 37° C., for a minimum of 30 minutes to allow for uptake. To stop the transport process, the cells were washed with PBS and fixed using 4% paraformaldehyde. Immunostaining of the transporter, which was fused with a FLAG tag, was performed using an anti-FLAG 488 antibody. Before confocal imaging, the cell nuclei were labeled with Hoechst 33342. Finally, the cells were mounted and imaged using a Leica SP8 confocal microscope.

The target in a further test is T2, SLCO1A2 (Homo sapiens, UniProt P46721).
T2 sequence (P46721 1-670): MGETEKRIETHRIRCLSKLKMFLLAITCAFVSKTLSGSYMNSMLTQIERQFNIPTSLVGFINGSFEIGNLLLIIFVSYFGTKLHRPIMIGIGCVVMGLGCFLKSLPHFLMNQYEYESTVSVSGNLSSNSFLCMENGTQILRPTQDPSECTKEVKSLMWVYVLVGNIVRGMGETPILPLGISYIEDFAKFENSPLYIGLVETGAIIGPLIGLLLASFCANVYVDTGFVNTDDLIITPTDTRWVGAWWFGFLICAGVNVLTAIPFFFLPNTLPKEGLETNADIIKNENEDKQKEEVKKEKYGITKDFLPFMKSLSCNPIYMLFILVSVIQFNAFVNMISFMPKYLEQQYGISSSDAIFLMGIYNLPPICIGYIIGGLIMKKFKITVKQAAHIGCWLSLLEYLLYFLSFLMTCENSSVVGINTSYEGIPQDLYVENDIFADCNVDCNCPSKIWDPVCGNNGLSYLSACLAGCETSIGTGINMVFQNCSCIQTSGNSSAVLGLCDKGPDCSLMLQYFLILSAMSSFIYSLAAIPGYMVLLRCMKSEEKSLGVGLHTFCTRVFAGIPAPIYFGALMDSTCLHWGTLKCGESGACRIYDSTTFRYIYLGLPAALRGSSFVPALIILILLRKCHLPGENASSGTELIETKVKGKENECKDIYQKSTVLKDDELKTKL
Put plainly: Compound uptake in HEK293 cells transfected with SLCO1A2. Format: cell-based. The settings on record: concentration not given. Set-up: FLAG. How it is done: as §1, §2

In the case of `CCN(CC)c1ccc2c(-c3ccc(S(=O)(=O)NCCNC(=O)c4ccc(Nc5nc(N(C)[C@H]6CN(C(=O)CC#N)CC[C@H]6C)c6cc[nH]c6n5)cc4)cc3S(=O)(=O)[O-])c3ccc(=[N+](CC)CC)cc-3oc2c1` [Compound 53, 5-(N-(2-(4-((4-(((3R,4R)-1-(2-cyanoacetyl)-4-methylpiperidin-3-yl)(methyl)amino)-7H-pyrrolo[2,3-d]pyrimidin-2-yl)amino)benzamido)ethyl)sulfamoyl)-2-(6-(diethylamino)-3-(diethyliminio)-3H-xanthen-9-yl)benzenesulfonate], the “uptake in Slco1a4 transfected HEK293 cells” value on Slco1a4 is given as “is taken up”. Moreover, the “uptake in SLCO1A2 transfected HEK293 cells” value at SLCO1A2 is reported as “is taken up”.
